Laboratory results as given in patent US8124647B2 (priority 2002, dated 2012).
Read-outs that look alike come from different tables or passages of the source.

How the values were obtained:
[1] = molecular target: T1, human androgen receptor (Homo sapiens, UniProt P10275); assay: androgenic activity (EC50, potency, efficacy), transactivation bioassay in CHO-AR-pMMTV-LUC cells in the presence of 0.1 μmol/l onapristone (Table 5); assay type: cell-based; settings: for Emax: read-out: ago efficacy; for ago potency: potency expressed as percentage of DHT activity, in the presence of 0.1 μmol/l onapristone
T1 construct: expressed in transfected cells; host or cells: CHO cells, cell line CHO-AR-pMMTV-LUC 1G12-A5-CA
T1 sequence (P10275 1-920): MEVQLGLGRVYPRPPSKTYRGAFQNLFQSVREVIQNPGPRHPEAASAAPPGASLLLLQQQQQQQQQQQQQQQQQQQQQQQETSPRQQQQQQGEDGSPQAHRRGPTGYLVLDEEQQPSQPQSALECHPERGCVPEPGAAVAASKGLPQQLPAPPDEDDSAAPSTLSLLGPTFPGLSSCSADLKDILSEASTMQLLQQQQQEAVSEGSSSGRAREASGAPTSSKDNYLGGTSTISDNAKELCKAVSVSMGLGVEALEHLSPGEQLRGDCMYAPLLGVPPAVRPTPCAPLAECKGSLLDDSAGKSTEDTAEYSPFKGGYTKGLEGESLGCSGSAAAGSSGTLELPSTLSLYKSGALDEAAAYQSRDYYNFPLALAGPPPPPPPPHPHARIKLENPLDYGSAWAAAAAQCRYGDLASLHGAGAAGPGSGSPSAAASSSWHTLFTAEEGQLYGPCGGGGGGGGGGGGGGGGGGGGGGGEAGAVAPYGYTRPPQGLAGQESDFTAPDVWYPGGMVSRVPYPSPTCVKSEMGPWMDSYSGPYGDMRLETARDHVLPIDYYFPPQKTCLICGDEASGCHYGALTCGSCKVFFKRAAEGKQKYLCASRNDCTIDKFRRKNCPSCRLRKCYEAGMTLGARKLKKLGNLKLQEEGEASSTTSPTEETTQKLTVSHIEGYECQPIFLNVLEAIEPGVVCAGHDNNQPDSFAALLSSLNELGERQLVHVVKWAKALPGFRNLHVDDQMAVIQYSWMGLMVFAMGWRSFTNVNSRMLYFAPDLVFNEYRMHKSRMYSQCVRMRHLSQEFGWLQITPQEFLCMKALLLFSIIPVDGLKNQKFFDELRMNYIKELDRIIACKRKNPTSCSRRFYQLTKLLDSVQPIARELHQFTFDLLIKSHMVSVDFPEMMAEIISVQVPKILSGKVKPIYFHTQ
Method: The androgenic activity (EC50, potency, and efficacy) of the compounds in Table 5 was determined in an in vitro bioassay of Chinese hamster ovary (CHO) cells stably transfected with the human androgen receptor expression plasmid and a reporter plasmid in which the MMTV promoter is linked to the luciferase reporter gene. The cell line CHO-AR-pMMTV-LUC 1G12-A5-CA is described in Schoonen et al. (J. Steroid Biochem. Moles. Biol. […]; 74: 213-222). The androgen receptor activity of compounds was determined in the presence of 0.1 μmol/l onapristone. The maximal efficacy in the presence of 100 nmol/l DHT was set as 100%. The potencies are expressed as percentage of DHT activity.

[2] = molecular target: T1, human androgen receptor; assay: cell-based; settings: antiandrogenic activity, in the presence of 1 nM DHT; read-out: ant EC50
Method: (§1) Compounds were tested for their Androgen Receptor activity in a transactivation assay and in a binding assay.
(§2) The (anti-)androgenic activity of test compounds (EC50 and intrinsic activity) was determined in an in vitro bioassay of Chinese hamster ovary (CHO) cells stably transfected with the human androgen receptor expression plasmid and a reporter plasmid in which the MMTV-promoter is linked to the luciferase reporter gene. The cell-line CHO-AR-pMMTV-LUC 1G12-A5-CA is described in Schoonen et al. (2000), Journal of Steroid Biochemistry and Molecular Biology 74(4):213-222. The antiandrogenic activity of a test compound was determined by the inhibition of the transactivation via the androgen receptor of the enzyme luciferase in the presence of 1 nM DHT (5α-dihydrotestosterone, 17β-hydroxy-5α-androstan-3-one). Intrinsic activity of antiandrogenic activity was determined in the presence of the reference antiandrogen 2-Hydroxy-2-methyl-N-(4-nitro-3-trifluoromethyl-phenyl)-propionamide(Hydroxyflutamide), and set at 100%. For androgenic activity, maximal intrinsic activity in the presence of 100 nM DHT was set at 100%.

[3] = molecular target: T1, human androgen receptor; assay: androgenic activity (EC50 and intrinsic activity), transactivation bioassay in CHO-AR-pMMTV-LUC cells (Table 4); assay type: cell-based; settings: androgenic activity, read-out: ago EC50
Method: as §1, §2

[4] = maximal intrinsic activity, activity in the presence of 100 nM DHT set at 1.00, CHO-AR-pMMTV-LUC cells, 0.1 μmol/l onapristone

SMILES: COc1ccc2c(Sc3ccccc3[N+](=O)[O-])cn(Cc3ccc(Cl)nc3)c2c1 [Compound 96, 1-(6-Chloro-pyridin-3-ylmethyl)-6-methoxy-3-(2-nitro-phenylsulfanyl)-1H-indole]
- Emax [1, 4]: 20 to 50%
- ago potency ([1]; CHO-AR-pMMTV-LUC cells): ± (between 0.1% and 1%)

SMILES: COc1ccc2c(Sc3ccccc3[N+](=O)[O-])cn(Cc3cc(F)c(F)c(F)c3)c2c1 [Compound 94, 6-Methoxy-3-(2-nitro-phenylsulfanyl)-1-(3,4,5-trifluoro-benzyl)-1H-indole]
- Emax [1, 4]: > 80%
- ago potency ([1]; CHO-AR-pMMTV-LUC cells): + (between 1% and 5%)

SMILES: CCNC(=O)c1ccc2c(Sc3ccccc3[N+](=O)[O-])cn(Cc3cccnc3)c2c1 [Compound 113, 3-(2-Nitro-phenylsulfanyl)-1-pyridin-3-ylmethyl-1H-indole-6-carboxylic acid ethylamide]
- Emax [1, 4]: 50 to 80%
- ago potency ([1]; CHO-AR-pMMTV-LUC cells): + (between 1% and 5%)

SMILES: COc1ccc2c(Sc3ccccc3[N+](=O)[O-])cn(Cc3cc(F)cc(F)c3F)c2c1 [Compound 95, 6-Methoxy-3-(2-nitro-phenylsulfanyl)-1-(2,3,5-trifluoro-benzyl)-1H-indole]
- Emax [1, 4]: > 80%
- ago potency ([1]; CHO-AR-pMMTV-LUC cells): ± (between 0.1% and 1%)

SMILES: COc1ccc2c(Sc3ccccc3[N+](=O)[O-])cn(Cc3ccncn3)c2c1 [Compound 116, 6-Methoxy-3-(2-nitro-phenylsulfanyl)-1-pyrimidin-4-ylmethyl-1H-indole]
- Emax [1, 4]: 50 to 80%
- ago potency ([1]; CHO-AR-pMMTV-LUC cells): + (between 1% and 5%)

SMILES: O=C(Nc1ccc2c(Sc3ccccc3[N+](=O)[O-])cn(Cc3cc(F)cc(F)c3)c2c1)C(F)F [Compound 98, N-[1-(3,5-Difluoro-benzyl)-3-(2-nitro-phenylsulfanyl)-1H-indol-6-yl]-2,2-difluoro-acetamide]
- Emax [1, 4]: 50 to 80%
- ago potency ([1]; CHO-AR-pMMTV-LUC cells): ++ (>5%)

SMILES: CCC(=O)Nc1ccc2c(Sc3ccccc3[N+](=O)[O-])cn(Cc3cccnc3)c2c1 [Compound 105, N-[3-(2-Nitro-phenylsulfany)-1-pyridin-3-ylmethyl-1H-indol-6-yl]-propionamide]
- Emax [1, 4]: 20 to 50%
- ago potency ([1]; CHO-AR-pMMTV-LUC cells): + (between 1% and 5%)

SMILES: O=C(CF)Nc1ccc2c(Sc3ccccc3[N+](=O)[O-])cn(Cc3cccnc3)c2c1 [Compound 104, 2-Fluoro-N-[3-(2-nitro-phenylsulfanyl)-1-pyridin-3-ylmethyl-1H-indol-6-yl]-acetamide]
- ago potency ([1]; CHO-AR-pMMTV-LUC cells): + (between 1% and 5%)
- Emax [1]: < 20%

SMILES: O=C(CF)Nc1ccc2c(Sc3ccccc3[N+](=O)[O-])cn(Cc3cc(F)cc(F)c3)c2c1 [Compound 97, N-[1-(3,5-Difluoro-benzyl)-3-(2-nitro-phenylsulfanyl)-1H-indol-6-yl]-2-fluoro-acetamide]
- ago potency ([1]; CHO-AR-pMMTV-LUC cells): + (between 1% and 5%)
- Emax [1]: > 80%

SMILES: N#Cc1ccc2c(Sc3ccccc3[N+](=O)[O-])cn(Cc3ccccn3)c2c1 [Compound 119, 3-(2-Nitro-phenylsulfanyl)-1-pyridin-2-ylmethyl-1H-indole-6-carbonitrile]
- Emax [1, 4]: > 80%
- ago potency ([1]; CHO-AR-pMMTV-LUC cells): ++ (>5%)

SMILES: COc1ccc2c(Sc3ccccc3[N+](=O)[O-])cn(Cc3cnccn3)c2c1 [Compound 117, 6-Methoxy-3-(2-nitro-phenylsulfanyl)-1-pyrazin-2-ylmethyl-1H-indole]
- Emax [1, 4]: 50 to 80%
- ago potency ([1]; CHO-AR-pMMTV-LUC cells): + (between 1% and 5%)

SMILES: N#Cc1ccc2c(Sc3ccccc3[N+](=O)[O-])cn(Cc3cccnc3)c2c1 [Compound 121, 3-(2-Nitro-phenylsulfanyl)-1-pyridin-3-ylmethyl-1H-indole-6-carbonitrile]
- Emax [1, 4]: > 80%
- ago potency ([1]; CHO-AR-pMMTV-LUC cells): + (between 1% and 5%)

SMILES: COc1ccc2c(Sc3ccccc3[N+](=O)[O-])cn(Cc3cncnc3)c2c1 [Compound 115, 6-Methoxy-3-(2-nitro-phenylsulfanyl)-1-pyrimidin-5-ylmethyl-1H-indole]
- Emax [1, 4]: 50 to 80%
- ago potency ([1]; CHO-AR-pMMTV-LUC cells): ++ (>5%)

SMILES: Cn1cnc(S(=O)(=O)Nc2ccc3c(Sc4ccccc4[N+](=O)[O-])cn(Cc4cc(F)cc(F)c4)c3c2)c1 [Compound 108, 1-Methyl-1H-imidazole-4-sulfonic acid [1-(3,5-difluoro-benzyl)-3-(2-nitro-phenylsulfanyl)-1H-indol-6-yl]-amide]
- Emax [1, 4]: > 80%
- ago potency ([1]; CHO-AR-pMMTV-LUC cells): + (between 1% and 5%)

SMILES: CNC(=O)c1ccc2c(Sc3ccccc3[N+](=O)[O-])cn(Cc3cccnc3)c2c1 [Compound 112, 3-(2-Nitro-phenylsulfanyl)-1-pyridin-3-ylmethyl-1H-indole-6-carboxylic acid methylamide]
- Emax [1, 4]: 20 to 50%
- ago potency ([1]; CHO-AR-pMMTV-LUC cells): + (between 1% and 5%)

SMILES: O=C(CF)Nc1ccc2c(Sc3ccccc3[N+](=O)[O-])cn(Cc3ccccn3)c2c1 [Compound 100, 2-Fluoro-N-[3-(2-nitro-phenylsulfanyl)-1-pyridin-2-ylmethyl-1H-indol-6-yl]-acetamide]
- ago potency ([1]; CHO-AR-pMMTV-LUC cells): + (between 1% and 5%)
- Emax [1]: > 80%

SMILES: CN(C)C(=O)c1ccc2c(Sc3ccccc3[N+](=O)[O-])cn(Cc3ccccn3)c2c1 [Compound 109, 3-(2-Nitro-phenylsulfanyl)-1-pyridin-2-ylmethyl-1H-indole-6-carboxylic acid dimethylamide]
- Emax [1, 4]: > 80%
- ago potency ([1]; CHO-AR-pMMTV-LUC cells): + (between 1% and 5%)

SMILES: COc1ccc2c(Sc3ccccc3C(N)=O)cn(Cc3cc(F)cc(F)c3)c2c1 [Compound 18, 2-[1-(3,5-Difluoro-benzyl)-6-methoxy-1H-indol-3-ylsulfanyl]-benzamide]
- EC50 [2]: 5 to 100 nM
- EC50 [3]: 5 to 100 nM

SMILES: COc1ccc2c(Sc3ccccc3[N+](=O)[O-])cn(Cc3c(C)noc3C)c2c1 [Compound 80]
- EC50 [2]: < 1000 nM
- EC50 [3]: < 1000 nM

SMILES: COc1ccc2c(Sc3ccccc3[N+](=O)[O-])cn(Cc3cccc(Cl)c3)c2c1 [Compound 67]
- EC50 [2]: > 10000 nM
- EC50 [3]: 5 to 100 nM

SMILES: COc1ccc2c(Sc3ccccn3)cn(Cc3cc(F)cc(F)c3)c2c1 [Compound 65, 1-(3,5-Difluoro-benzyl)-6-methoxy-3-(pyridin-2-ylsulfanyl)-1H-indole]
- EC50 [2]: > 10000 nM
- EC50 [3]: 5 to 100 nM

SMILES: O=C(NCc1ccccc1)c1ccc2c(Sc3ccccc3[N+](=O)[O-])cn(Cc3cc(F)cc(F)c3)c2c1 [Compound 43]
- EC50 [2]: < 1000 nM
- EC50 [3]: 5 to 100 nM

SMILES: O=[N+]([O-])c1ccccc1Sc1cn(Cc2cc(F)cc(F)c2)c2cc(Br)ccc12 [Compound 22]
- EC50 [2]: > 10000 nM
- EC50 [3]: 5 to 100 nM

SMILES: O=[N+]([O-])c1ccccc1Sc1cn(Cc2cc(F)cc(F)c2)c2ccc(F)cc12 [Compound 53]
- EC50 [2]: > 10000 nM
- EC50 [3]: 5 to 100 nM

SMILES: COc1ccc2c(Sc3ccccc3[N+](=O)[O-])cn(Cc3cc(C)on3)c2c1 [Compound 13]
- EC50 [2]: > 10000 nM
- EC50 [3]: < 1000 nM

SMILES: CCCNC(=O)c1ccc2c(Sc3ccccc3[N+](=O)[O-])cn(Cc3cc(F)cc(F)c3)c2c1 [Compound 48]
- EC50 [2]: < 1000 nM
- EC50 [3]: 5 to 100 nM

SMILES: CCN(CC)C(=O)c1ccc2c(Sc3ccccc3[N+](=O)[O-])cn(Cc3cc(F)cc(F)c3)c2c1 [Compound 32]
- EC50 [2]: < 1000 nM
- EC50 [3]: 5 to 100 nM
